Assay results reported in patent EP2998289B1, “COMPOUNDS FOR TARGETING DRUG DELIVERY AND ENHANCING SIRNA ACTIVITY” (NITTO DENKO CORPORATION, priority 2011, dated 2012).

Legend:
gp46 [1] = assay: in vivo efficacy, rat DMNQ short-term liver damage model (liver gp46 mRNA)
gp46 [2] = assay: pHSC in vitro assay: gp46/HSP47 mRNA knockdown by siRNA formulations, qRT-PCR; settings: for in vitro (pHSC) % KD: @ 50 nM, label = cationic lipid of the formulation, 2880 min; for in vitro (pHSC) EC50 or % KD: % KD @ 50 nM, 20:20 HEDC:S104 with 2% conjugate
[3] = @ 0.75 mpk, 20:20 HEDC:S104 with 2% retinoid conjugate

## CCCCCCCCCCCCCC(=O)OCCN(CCOC(=O)CCCCCCCCCCCCC)C(=O)C[N+](C)(C)CCO.[Br-] [HEDC, 2-(bis(2-(tetradecanoyloxy)ethyl)amino)-N-(2-hydroxyethyl)-N,N-dimethyl-2-oxoethanaminium bromide]
gp46 [1]; @ 0.5 mpk, label = cationic lipid of the formulation
  in vivo (rat DMNQ) % KD: 52% @ 0.5 mpk
gp46 [2]
  in vitro (pHSC) % KD: 68% @ 50 nM

## CCCCCCCC/C=C\CCCCCCCC(=O)OCCN(CCOC(=O)CCCCCCC/C=C\CCCCCCCC)C(=O)C[N+](C)(CCO)CCO.[Br-] [HE2DODC, 2-(bis(2-(oleoyloxy)ethyl)amino)-N,N-bis(2-hydroxyethyl)-N-methyl-2-oxoethanaminium bromide]
gp46 [2]
  in vitro (pHSC) % KD: 78% @ 50 nM

## CCCCCCCC/C=C\CCCCCCCC(=O)OCCN(CCOC(=O)CCCCCCC/C=C\CCCCCCCC)C(=O)CC[N+](C)(C)CCO.[Br-] [HE-Et-DODC, 3-(bis(2-(oleoyloxy)ethyl)amino)-N-(2-hydroxyethyl)-N,N-dimethyl-3-oxopropan-1-aminium bromide]
gp46 [2]
  in vitro (pHSC) % KD: 71% @ 50 nM

## CCCCCCCC/C=C\CCCCCCCC(=O)OCCCN(CCCOC(=O)CCCCCCC/C=C\CCCCCCCC)C(=O)C[N+](C)(C)CCO.[Br-] [Pr-HE-DODC, 2-(bis(3-(oleoyloxy)propyl)amino)-N-(2-hydroxyethyl)-N,N-dimethyl-2-oxoethanaminium bromide]
gp46 [2]
  in vitro (pHSC) % KD: 73% @ 50 nM

## CCCCCCCC/C=C\CCCCCCCC(=O)OCCN(CCOC(=O)CCCCCCC/C=C\CCCCCCCC)C(=O)CCC[N+](C)(C)CCO.[Br-] [HE-Pr-DODC, 4-(bis(2-(oleoyloxy)ethyl)amino)-N-(2-hydroxyethyl)-N,N-dimethyl-4-oxobutan-1-aminium bromide]
gp46 [2]
  in vitro (pHSC) % KD: 75% @ 50 nM

## CC1=C(/C=C/C(C)=C/C=C/C(C)=C/C(=O)NCCCC[C@H](NC(=O)/C=C(C)/C=C/C=C(C)/C=C/C2=C(C)CCCC2(C)C)C(=O)NCCCOCCOCCOCCCNC(=O)CCOCCOCCOCCOCCOCCC(=O)NCCCOCCOCCOCCCNC(=O)[C@H](CCCCNC(=O)/C=C(C)/C=C/C=C(C)/C=C/C2=C(C)CCCC2(C)C)NC(=O)/C=C(C)/C=C/C=C(C)/C=C/C2=C(C)CCCC2(C)C)C(C)(C)CCC1 [DiVA, N1,N19-bis((S,23E,25E,27E,29E)-16-((2E,4E,6E,8E)-3,7-dimethyl-9-(2,6,6-trimethylcyclohex-1-en-1-yl)nona-2,4,6,8-tetraenamido)-24,28-dimethyl-15,22-dioxo-30-(2,6,6-trimethylcyclohex-1-en-1-yl)-4,7,10-trioxa-14,21-diazatriaconta-23,25,27,29-tetraen-1-yl)-4,7,10,13,16-pentaoxanonadecane-1,19-diamide]
gp46 [1]; [3]
  in vivo (rat DMNQ) % KD: 60% @ 0.75 mpk
gp46 [2]; Rattus norvegicus, read-out: in vitro (pHSC) EC50 or % KD
  inhibition at 0.05 µM: 74%

## N1,N19-bis((16S)-16-(3,7-dimethyl-9-(2,6,6-trimethylcyclohex-1-en-1-yl)nonanamido)-24,28-dimethyl-15,22-dioxo-30-(2,6,6-trimethylcyclohex-1-en-1-yl)-4,7,10-trioxa-14,21-diazatriacontyl)-4,7,10,13,16-pentaoxanonadecane-1,19-diamide [satDiVA]
gp46 [1]; [3]
  in vivo (rat DMNQ) % KD: 74% @ 0.75 mpk
gp46 [2]
  in vitro (pHSC) EC50 or % KD: 73% @ 50 nM

## CCCCCCCCCCCCCC(=O)NCCCC[C@@H](NC(=O)CCCCCCCCCCCCC)C(=O)NCCCOCCOCCOCCCNC(=O)CCOCCOCCOCCOCCOCCC(=O)NCCCOCCOCCOCCCNC(=O)[C@@H](CCCCNC(=O)CCCCCCCCCCCCC)NC(=O)CCCCCCCCCCCCC [Example 4Myr, N1,N19-bis((R)-15,22-dioxo-16-tetradecanamido-4,7,10-trioxa-14,21-diazapenta-triacontyl)-4,7,10,13,16-pentaoxanonadecane-1,19-diamide]
gp46 [2]
  in vitro (pHSC) EC50 or % KD: 27% @ 50 nM

## CCCCCCCCCCCCCC(=O)OCCN(CCOC(=O)CCCCCCCCCCCCC)C(=O)CC[N+](C)(C)CCO.[Br-] [HE-Et-DC, 3-(bis(2-(tetradecanoyloxy)ethyl)amino)-N-(2-hydroxyethyl)-N,N-dimethyl-3-oxopropan-1-aminium bromide]
gp46 [2]
  in vitro (pHSC) % KD: 70% @ 50 nM

## N1,N19-bis((R)-1,8-dioxo-7-(4-((E)-2-(5,5,8,8-tetramethyl-5,6,7,8-tetrahydro-naphthalen-2-yl)prop-1-en-1-yl)benzamido)-1-(4-((E)-2-(5,5,8,8-tetramethyl-5,6,7,8-tetrahydronaphthalen-2-yl)prop-1-en-1-yl)phenyl)-13,16,19-trioxa-2,9-diazadocosan-22-yl)-4,7,10,13,16-pentaoxanonadecane-1,19-diamide [Example 4TTNPB]
gp46 [2]
  in vitro (pHSC) EC50 or % KD: 34% @ 50 nM

## CCCCCCCCCCCCCC(=O)OCCN(CCOC(=O)CCCCCCCCCCCCC)C(=O)CCC[N+](C)(C)CCO.[Br-] [HE-Pr-DC, 4-(bis(2-(tetradecanoyloxy)ethyl)amino)-N-(2-hydroxyethyl)-N,N-dimethyl-4-oxobutan-1-aminium bromide]
gp46 [2]
  in vitro (pHSC) % KD: 47% @ 50 nM

## CCCCCCCCCCCCCC(=O)OCCCN(CCCOC(=O)CCCCCCCCCCCCC)C(=O)C[N+](C)(C)CCO.[Br-] [Pr-HEDC, 2-(bis(3-(tetradecanoyloxy)propyl)amino)-N-(2-hydroxyethyl)-N,N-dimethyl-2-oxoethanaminium bromide]
gp46 [2]
  in vitro (pHSC) % KD: 75% @ 50 nM
